Non-standard residues stand in square brackets, D forms with d. Residues, ends and D or L forms follow the SMILES beside them. Cha = N[C@@H](CC1CCCCC1)C(=O)O
What follows are compounds tested on SARS-CoV 3CLpro. Conditions: not given.
Assay type: biochemical

| SMILES | Inact.(<6)/Act.(>=6) |
| --- | --- |
| COC(=O)[C@]1(C)CC[C@]2(C)CC[C@]3(C)C4=CC=C5C(=CC(=O)C(O)=C5C)[C@]4(C)CC[C@@]3(C)[C@@H]2C1 [CMP128] | Inact. (key: Inact.(<6); Act.(>=6)) |

Same assay, conditions: activity class by pIC50 threshold 6

| SMILES | Inact.(<6)/Act.(>=6) |
| --- | --- |
| COC(=O)c1nc(SSc2ccc(Cl)cc2)[nH]c1C [CMP268] | Inact. (Inact.(<6)) |
| CC(C)(C)NC(=O)C(c1cccnc1)N(C(=O)c1cnco1)c1ccc(C(C)(C)C)cc1 (stereo not shown) [CMP188] | Inact. (Inact.(<6)) |
| O=C1Nc2ccc(S(=O)(=O)N3CCN(C(=O)c4ccco4)CC3)cc2C1=O [CMP238] | Inact. (Inact.(<6)) |
| O=C(Sc1nnc(C(F)(F)F)[nH]1)c1ccc(C#Cc2ccccc2)o1 [CMP143] | Inact. (Inact.(<6)) |
| O=C(Oc1cncc(Cl)c1)c1ccc(-c2ccc([N+](=O)[O-])cc2)o1 [CMP282] | Act. (Act.(>=6)) |
| CN1CCN(S(=O)(=O)c2ccc3c(c2)C(=O)C(=O)N3Cc2ccc3ccccc3c2)CC1 [CMP243] | Inact. (Inact.(<6)) |
| O=C[C@H](Cc1c[nH]cn1)NC[C@@H]1C[C@H]2CCCC[C@@H]2CN1C(=O)c1ccccc1 [CMP262] | Inact. (Inact.(<6)) |
| O=C(Oc1cncc(Cl)c1)c1cccc([N+](=O)[O-])c1 [CMP275] | Act. (Act.(>=6)) |
| O=C1NN(c2ccc(Cl)c(Cl)c2)C(=O)/C1=C\c1ccc(-c2ccc(Br)cc2C(=O)O)o1 [CMP104] | Inact. (Inact.(<6)) |
| COCCC(=O)Nc1ccc(N(C(=O)Cn2nnc3ccccc32)C(C)c2ccsc2)cc1 (stereo not shown) [CMP252] | Inact. (Inact.(<6)) |
| CCOC(=O)c1ccccc1SSc1nc(C(=O)OC)c(C)[nH]1 [CMP264] | Inact. (Inact.(<6)) |
| O=[N+]([O-])c1ccccc1SSc1nccs1 [CMP266] | Inact. (Inact.(<6)) |
| O=C(Oc1cncc(Cl)c1)c1cccnc1 [CMP172] | Act. (Act.(>=6)) |
| O=C1Nc2ccc(S(=O)(=O)N3CCN(Cc4cccc(Cl)c4)CC3)cc2C1=O [CMP235] | Inact. (Inact.(<6)) |
| CC(C)(C)NC(=O)C(c1cccnc1)N(C(=O)c1ccc(Cl)o1)c1ccc(C(C)(C)C)cc1 (stereo not shown) [CMP201] | Inact. (Inact.(<6)) |
| CC(=O)n1nc(SSc2ccccc2[N+](=O)[O-])nc1-c1cccnc1 [CMP272] | Inact. (Inact.(<6)) |
| CC(C)C(=O)Nc1ccc(N(Cc2ccsc2)C(=O)Cn2nnc3ccccc32)cc1 [CMP198] | Inact. (Inact.(<6)) |
| COc1cc(/C=C/C(=O)/C=C(O)/C=C/c2ccc(O)c(OC)c2)ccc1O [CMP156] | Inact. (Inact.(<6)) |
| O=C(Cn1nnc2ccccc21)N(Cc1ccsc1)c1ccc(-c2cccnc2)cc1 [CMP224] | Act. (Act.(>=6)) |
| CC(C)(C)NC(=O)C(c1ccncc1)N(C(=O)c1ccco1)c1ccc(C(C)(C)C)cc1 (stereo not shown) [CMP205] | Inact. (Inact.(<6)) |
| CC(C)(C)NC(=O)C(c1cnccn1)N(C(=O)c1ccco1)c1ccc(C(C)(C)C)cc1 (stereo not shown) [CMP204] | Inact. (Inact.(<6)) |

| SMILES | Inact.(<6)/Act.(>=6) |
| --- | --- |
| CC(=O)N[C@@H](C)C(=O)N[C@H](C(=O)N[C@@H](CC1CCCCC1)C(=O)N[C@H](C=O)Cc1c[nH]cn1)C(C)C [CMP219] (Ac-AV[Cha]H-aldehyde) | Act. (Act.(>=6)) |
| CCN(CC)c1ccc(C(=O)On2nnc3ccccc32)cc1 [CMP164] | Inact. (Inact.(<6)) |
| O=C1C(=O)N(Cc2ccc3ccccc3c2)c2ccc(S(=O)(=O)N3CCOCC3)cc21 [CMP246] | Inact. (Inact.(<6)) |
| COc1cccc(C(=O)Oc2cncc(Cl)c2)c1 [CMP171] | Act. (Act.(>=6)) |
| O=C[C@H](Cc1c[nH]cn1)NC[C@H]1C[C@@H]2CCCC[C@H]2CN1C(=O)c1ccc(Br)cc1 [CMP263] | Inact. (Inact.(<6)) |
| Cc1nc(C)c(C(=O)C2=C(O)C(=O)N(CCCN3CCOCC3)C2c2cccc([N+](=O)[O-])c2)s1 (stereo not shown) [CMP289] | Inact. (Inact.(<6)) |
| C=C(CCSc1ccccc1NC(=O)/C=C/c1ccccc1)OC [CMP107] | Inact. (Inact.(<6)) |
| CC(C)COC(=O)Nc1ccc(N(Cc2ccsc2)C(=O)Cn2nnc3ccccc32)cc1 [CMP199] | Inact. (Inact.(<6)) |
| COc1ccc(-c2cc(=O)c3c(O)cc(O)cc3o2)cc1-c1c(O)cc(O)c2c(=O)cc(-c3ccc(O)cc3)oc12 [CMP157] | Inact. (Inact.(<6)) |
| O=C(Oc1cncc(Cl)c1)c1ccc(-c2cccc([N+](=O)[O-])c2)o1 [CMP278] | Act. (Act.(>=6)) |
| CC(C)(C)NC(=O)C(c1ccsc1)N(C(=O)Cn1nnc2ccccc21)c1ccc(NC(=O)C2CC2)cc1 (stereo not shown) [CMP191] | Inact. (Inact.(<6)) |
| Cc1ccc(C(=O)N/C(=C\c2ccc(-c3ccccc3[N+](=O)[O-])o2)C(=O)NCCCN(C)C)cc1 [CMP284] | Inact. (Inact.(<6)) |
| O=C[C@H](Cc1cnc[nH]1)NC[C@H]1C[C@@H]2CCCC[C@H]2CN1C(=O)c1ccc(-c2ccccc2)cc1 [CMP257] | Inact. (Inact.(<6)) |
| CC1=CC[C@]2(C)CC[C@]3(C)C4=CC=C5C(=CC(=O)C(O)=C5C)[C@]4(C)CC[C@@]3(C)[C@@H]2C1 [CMP200] | Inact. (Inact.(<6)) |
| CCC(C)(C)NC(=O)[C@@H](c1ccn(C)c1)N(C(=O)Cn1nnc2ccccc21)c1ccc(NC(C)=O)cc1 [CMP254] | Inact. (Inact.(<6)) |
| COC(=O)/C=C/[C@H](C[C@@H]1CCNC1=O)NC(=O)[C@H](CC(C)C)NC(=O)[C@@H](NC(=O)OCc1ccccc1)C(C)C [CMP253] | Inact. (Inact.(<6)) |
| CC(=O)Nc1cnc(SSc2ccc(Br)cc2)s1 [CMP23, reference compound] | Inact. (Inact.(<6)) |
| O=C1Nc2ccc(S(=O)(=O)N3CCN(CCc4ccccc4)CC3)cc2C1=O [CMP237] | Inact. (Inact.(<6)) |
| CN1CCN(S(=O)(=O)c2ccc3c(c2)C(=O)C(=O)N3C)CC1 [CMP241] | Inact. (Inact.(<6)) |
| CNc1ccc(N(Cc2ccsc2)C(=O)Cn2nnc3ccccc32)cc1 [CMP223] | Inact. (Inact.(<6)) |
| CC(=O)Nc1ccc(N(C(=O)Cn2cc(-c3ccccc3)nn2)C(C(=O)NC(C)(C)C)c2ccsc2)cc1 (stereo not shown) [CMP210] | Inact. (Inact.(<6)) |

| SMILES | Inact.(<6)/Act.(>=6) |
| --- | --- |
| CC1CCN(S(=O)(=O)c2ccc3c(c2)C(=O)C(=O)N3Cc2ccc3ccccc3c2)CC1 [CMP249] | Inact. (Inact.(<6)) |
| O=C[C@H](Cc1c[nH]cn1)NC[C@@H]1C[C@H]2CCCC[C@@H]2CN1C(=O)c1cccc(-c2ccccc2)c1 [CMP260] | Inact. (Inact.(<6)) |
| O=C(Oc1cncc(Br)c1)c1cccs1 [CMP232] | Act. (Act.(>=6)) |
| O=C(Cn1nnc2ccccc21)N(Cc1ccsc1)c1ccc(NCc2ccccc2)cc1 [CMP221] | Inact. (Inact.(<6)) |
| O=C[C@H](Cc1c[nH]cn1)NC[C@@H]1C[C@H]2CCCC[C@@H]2CN1C(=O)c1ccc(F)cc1 [CMP258] | Inact. (Inact.(<6)) |
| O=C[C@H](Cc1c[nH]cn1)NC[C@@H]1C[C@H]2CCCC[C@@H]2CN1C(=O)c1ccccc1-c1ccccc1 [CMP261] | Inact. (Inact.(<6)) |
| O=C1Nc2ccc(S(=O)(=O)N3CCN(c4ccccn4)CC3)cc2C1=O [CMP239] | Inact. (Inact.(<6)) |
| CC(C)C[C@H](NC(=O)[C@@H](NC(=O)[C@H](C)NC(=O)[C@H](CO)NC(=O)[C@@H](NC(=O)OCc1ccccc1)[C@@H](C)O)C(C)C)C(=O)N[C@H](C#N)CCC(N)=O [CMP231] (HELM PEPTIDE1{[O=C(OCc1ccccc1)[*:2]].T.S.A.V.L.[N#C[C@H](CCC(N)=O)N[*:1]]}$$$$V2.0) | Inact. (Inact.(<6)) |
| CC1CC(C)CN(S(=O)(=O)c2ccc3c(c2)C(=O)C(=O)N3C)C1 (stereo not shown) [CMP250] | Inact. (Inact.(<6)) |
| Cc1csc(SSc2ccccc2[N+](=O)[O-])n1 [CMP267] | Inact. (Inact.(<6)) |
| O=C(Oc1cncc(Br)c1)c1ccco1 [CMP276] | Act. (Act.(>=6)) |
| Cc1cc(S(=O)(=O)c2c([N+](=O)[O-])cc(C(F)(F)F)cc2[N+](=O)[O-])c(Cl)cc1Cl [CMP288] | Act. (Act.(>=6)) |
| CC(C)C[C@H](NC(=O)[C@@H](NC(=O)[C@H](C)NC(=O)OC(C)(C)C)C(C)C)C(=O)N[C@H](C#N)CCC(N)=O [CMP229] | Inact. (Inact.(<6)) |
| O=C[C@H](Cc1cnc[nH]1)NC[C@@H]1C[C@H]2CCCC[C@@H]2CN1C(=O)c1ccc(Br)cc1 [CMP256] | Inact. (Inact.(<6)) |
| CC(C)c1cc2c(cc1O)[C@@]1(C)CCC[C@@](C)(C=O)[C@@H]1CC2 [CMP208] | Inact. (Inact.(<6)) |
| Cc1coc2c1C(=O)C(=O)c1c-2ccc2c(C)cccc12 [CMP127] | Inact. (Inact.(<6)) |
| CC(C)C[C@H](NC(=O)[C@@H](NC(=O)[C@H](C)NC(=O)OCc1ccccc1)C(C)C)C(=O)N[C@H](C#N)CCC(N)=O [CMP230] | Inact. (Inact.(<6)) |
| C=C(Cc1cccc(C)c1)C1=CC=C(c2ccc(C)cc2)C1 [CMP233] | Inact. (Inact.(<6)) |
| Cc1nnc(SSc2ccccc2[N+](=O)[O-])o1 [CMP273] | Inact. (Inact.(<6)) |
| O=C(Cn1nnc2ccccc21)N(Cc1ccsc1)c1ccc(-c2ccncc2)cc1 [CMP226] | Inact. (Inact.(<6)) |
| Cc1cc(C(=O)N[C@@H](C)C(=O)N[C@H](C(=O)N[C@@H](CC(C)C)C(=O)N[C@H](C#N)CCC(N)=O)C(C)C)no1 [CMP228] | Inact. (Inact.(<6)) |
